From article PMC10824102, “Identification of small molecule inhibitors of G3BP-driven stress granule formation” (The Journal of Cell Biology, 2024)

Experiments:
[1] = test system: preformed stress granules in U2OS cells stably expressing G3BP1-GFP; test: Post-addition: dissolution of heat stress-induced stress granules; format: cell-based; conditions: for immediate reduction in stress granule area (preformed granules): 50 μM added after 25 min of 43°C heat stress; for stress granule disassembly during recovery at 37°C: 50 μM, compared with cells treated with inactive enantiomers
Experimental: For post-addition of compounds, U2OS cells stably expressing G3BP1-GFP were seeded into eight-well Lab-Tek chambered cover glass (Nunc) for sodium arsenite experiments or 35-mm glass-bottom dishes (MatTek) for heat shock experiments. Immediately prior to the experiment, media was replaced with FluoroBrite DMEM media (Gibco) in each well supplemented with 10% FBS and 4 mM L-glutamine; for sodium arsenite experiments, arsenite was added at a final concentration of 250 μM. Cells were then placed on a microscope on which 37°C temperature and 5% CO2 were maintained using a Bold Line Cage Incubator (Okolab) and an objective heater (Bioptechs), and 5–10 xy fields were stored. For sodium arsenite experiments, acquisition began immediately after finding all xy positions, 4 min after the addition of sodium arsenite. 30 min after arsenite was added, 250 μl FluoroBrite DMEM with 250 μM sodium arsenite and 0.1 mM (2×) G3I compound (vortexed for 5 s) was added to the sample. For heat shock experiments, each xy position was imaged every minute. At 2 min into the acquisition, the objective heater was ramped to 43°C. Following this, 250 μM (5×) G3I compound was prepared in FluoroBrite DMEM and vortexed for 15 s. This solution was kept on a 47°C heater near the microscope along with a pipette tip. At 27 min into the acquisition (25 min into heat shock), 250 μl of the prewarmed solution was added to the cells using the prewarmed tip. We note that the solution was heated to 47°C to compensate for the rapid heat loss when adding the solution. At 32 min into the acquisition (30 min heat shock), the heat was ramped down to 37°C. All imaging was acquired on a Yokogawa CSU W1 spinning disk attached to a Nikon Ti2 eclipse with a Photometrics Prime 95B camera using Nikon Elements software (v5.20.00 to v5.21.02). Imaging was performed through a Nikon Plan Apo 60× 1.40 NA oil objective with Immersol 518 F (refractive index 1.518; Zeiss), and Perfect Focus 2.0 (Nikon) was engaged for all captures.
Automated granule detection and measurement were performed using a combination of ilastik and CellProfiler software. Briefly, ND2 multipoint timelapse files were resaved as image sequences in Fiji with the Bio-Formats plugin so that individual frames of the movies could be treated as individual images for analysis. From there, pixel classification in ilastik was used to segment both stress granules and the total cellular area within the field using the G3BP1-GFP channel via machine learning. These segmentations, along with the original G3BP1-GFP image, were input into CellProfiler, where objects were defined using the masks from ilastik.

[2] = molecular target: T1, interaction between G3BP1 and endogenous caprin 1 (Homo sapiens, UniProt Q13283); test: Coimmunoprecipitation of G3BP1-GFP with endogenous caprin 1 in U2OS lysates; format: biochemical; conditions: increasing concentrations added to U2OS G3BP1-GFP lysates, GFP IP
T1 construct: expressed in transfected cells; host or cells: U2OS cells stably expressing G3BP1-GFP (lysate)
Experimental: U2OS cells expressing G3BP1-GFP were grown in 3-cm dishes to 100% confluency, at which point cells were collected and pelleted at 400 × g for 5 min. Pellets were either stored at −80°C or processed the same day by lysing with 200 μl in vivo lysis buffer (150 mM NaCl, 50 mM Tris [pH 7.5], 1 mM EDTA, 0.5% NP-40, and 10% glycerol, supplemented with 1 protease inhibitor tablet [11836170001; Roche]). Lysates were centrifuged at 13,000 × g at 4°C for 15 min, after which supernatants were transferred to a new tube and diluted with 200 μl lysis buffer containing indicated concentrations of G3I compounds. The mixture was then incubated with GFP-Trap (ChromoTek GFP-Trap Magnetic Agarose; Proteintech; gtma) for 2 h at 4°C. Beads were washed three times with lysis buffer, then incubated with 1× SDS sample buffer supplemented with 10% 2-mercaptoethanol, and boiled for 5 min at 95°C. Lysates were subjected to SDS-PAGE and then immunoblotted.
Samples were separated by SDS-PAGE and transferred to membranes. […] Membranes were visualized and quantified with an Odyssey Fc imaging system (LI-COR) and normalized to the amount of G3BP1 immunoprecipitated.

T1 sequence (Q13283 whole entry): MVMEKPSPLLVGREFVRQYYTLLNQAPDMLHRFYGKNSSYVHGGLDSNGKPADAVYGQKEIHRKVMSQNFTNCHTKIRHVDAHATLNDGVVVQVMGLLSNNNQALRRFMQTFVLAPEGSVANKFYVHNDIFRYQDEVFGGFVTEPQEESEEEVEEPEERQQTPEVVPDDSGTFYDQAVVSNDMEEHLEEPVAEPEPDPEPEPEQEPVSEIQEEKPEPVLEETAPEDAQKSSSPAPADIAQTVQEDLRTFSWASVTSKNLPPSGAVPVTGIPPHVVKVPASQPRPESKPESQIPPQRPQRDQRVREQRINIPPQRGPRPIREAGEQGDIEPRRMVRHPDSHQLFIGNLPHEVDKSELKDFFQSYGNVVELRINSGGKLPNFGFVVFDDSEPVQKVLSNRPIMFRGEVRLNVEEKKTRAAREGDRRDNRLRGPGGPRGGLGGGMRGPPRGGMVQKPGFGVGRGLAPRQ

| SMILES | immediate reduction in stress granule area (preformed granules) [1] | stress granule disassembly during recovery at 37°C [1] | interaction between G3BP1 and endogenous caprin 1 [2] |
| --- | --- | --- | --- |
| COCCC(NC(=O)C(C)NC(=O)C(NC(=O)C(NC(=O)C(F)CC(C)(C)C)C(C)(C)O)C(C)c1ccccc1)C(=O)N(C)Cc1ccccc1 (stereo not drawn) [G3Ia] | ~54% | completed disassembly faster | – |
| CC(NC(=O)C(NC(=O)C(NC(=O)CCC(C)(C)C)C(C)(C)O)C(C)c1ccccc1)C(=O)N1CCCC1c1ccccc1 (stereo not drawn) [G3Ib] | ~68% | completed disassembly faster | dose-dependent reduction |
| CC(NC(=O)C(NC(=O)C(NC(=O)CCC(C)(C)C)C(C)(C)O)C(C)c1ccccc1)C(=O)N1CCCC1c1ccccc1 (stereo not drawn) [G3Ib′] | – | – | no such effect |
